Drawing on article PMC10763615, “Identification and engineering of potent cyclic peptides with selective or promiscuous binding through biochemical profiling and bioinformatic data analysis” (RSC Chemical Biology, 2023), this text covers Kd for seven compounds.

The structures appear in SMILES notation. Read-outs that look alike come from different tables or passages of the source. Positions of bridges follow the written chain, without caps; N, C: chain ends. Residues, ends and D or L forms follow the SMILES beside them.

What all share (assay type): binding
The target in one assay is T1, FGF-R3C ECD (Homo sapiens, UniProt P22607).
T1 sequence (P22607 23-375 limits assumed): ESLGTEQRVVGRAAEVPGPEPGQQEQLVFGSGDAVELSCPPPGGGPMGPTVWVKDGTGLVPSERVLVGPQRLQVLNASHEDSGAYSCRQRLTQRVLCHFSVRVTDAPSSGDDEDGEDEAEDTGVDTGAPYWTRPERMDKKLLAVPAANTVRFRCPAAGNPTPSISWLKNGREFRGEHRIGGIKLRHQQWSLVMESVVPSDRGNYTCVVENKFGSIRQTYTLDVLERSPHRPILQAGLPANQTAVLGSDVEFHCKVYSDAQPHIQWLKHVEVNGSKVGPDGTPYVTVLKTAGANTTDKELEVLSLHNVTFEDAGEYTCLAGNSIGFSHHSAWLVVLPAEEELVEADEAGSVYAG
Put plainly: biochemical. Also noted: DNA constructs for the extracellular domain (ECD) of human FGF-; HPC4 (C); made in house; host or cells: HEK 293-6E. On the procedure:
(§1) KD affinity binding measurements were obtained by biolayer interferometry (BLI) instruments (Fortebio Octet HTX, or Sartorius Octet RH16 using either 8 or 16 channel mode.
(§2) For single concentration binding experiments, 50 μM peptide stocks in folding buffer were diluted 1:50 in mRNA display selection buffer (PBS pH7.4 supplemented with 0.05% Tween-20 and 0.01% BSA) in either a 96 well black plate, or a 384 well tilted bottom microplate (ForteBio). Biotinylated FGF-R protein was loaded onto Streptavidin-functionalised biosensors (ForteBio) and immersed into ~1 μM peptide to obtain association kinetics curves. Dissociation kinetics curves were obtained by subsequent immersion of ligand-associated loaded sensors into a 1:50 dilution of folding buffer in mRNA display selection buffer. Fitted KD data was adjusted for concentration as determined by UPLC-CAD.
(§3) For accurate multi-concentration KD determination, dilution series of each peptide were made, and association and dissociation kinetics curves were obtained as above for each concentration to fit a multi-point KD binding model. Data collection and analysis was performed using the Octet Instrument Control […]
(§4) concentration assay kinetics curves shown in supplementary Figure S 19-24.

A further assay concerns the target T2, FGF-R1C ECD (Homo sapiens, UniProt P11362).
T2 sequence (P11362 22-376 limits assumed): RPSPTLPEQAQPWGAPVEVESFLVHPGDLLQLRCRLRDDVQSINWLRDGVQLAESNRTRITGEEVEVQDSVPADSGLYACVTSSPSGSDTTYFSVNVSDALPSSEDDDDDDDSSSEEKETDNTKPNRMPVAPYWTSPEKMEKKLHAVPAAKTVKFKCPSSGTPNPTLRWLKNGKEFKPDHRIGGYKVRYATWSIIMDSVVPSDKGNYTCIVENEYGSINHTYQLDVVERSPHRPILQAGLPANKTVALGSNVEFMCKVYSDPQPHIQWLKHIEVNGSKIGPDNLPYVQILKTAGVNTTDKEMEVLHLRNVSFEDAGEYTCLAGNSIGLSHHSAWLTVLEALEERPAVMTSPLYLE
The assay is described as follows: biochemical. Also noted: DNA constructs for the extracellular domain (ECD) of human FGF-; HPC4 (C); made in house; host or cells: HEK 293-6E. The protocol:
as §1, §2, §3, §4

The next assay has as its target T3, FGF-R4 ECD (Homo sapiens, UniProt P22455).
T3 construct: DNA constructs for the extracellular domain (ECD) of human FGF-; HPC4 (C); made in house; host or cells: HEK 293-6E
T3 sequence (P22455 22-369 limits assumed): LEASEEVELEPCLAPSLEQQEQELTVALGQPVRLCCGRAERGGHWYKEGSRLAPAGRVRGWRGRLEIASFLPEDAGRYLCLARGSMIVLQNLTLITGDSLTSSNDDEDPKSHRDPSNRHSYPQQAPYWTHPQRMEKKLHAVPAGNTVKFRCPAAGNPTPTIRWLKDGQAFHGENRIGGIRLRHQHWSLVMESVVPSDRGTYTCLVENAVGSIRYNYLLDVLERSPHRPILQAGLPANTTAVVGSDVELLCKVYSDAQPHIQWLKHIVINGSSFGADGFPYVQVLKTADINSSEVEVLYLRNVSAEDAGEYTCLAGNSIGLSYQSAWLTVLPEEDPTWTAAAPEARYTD
Put plainly: single concentration BLI of crude peptides. The note with it: read-out: KD (4). The protocol: as §1
as §2, with “UPLC-CAD. […]” for “UPLC-CAD.”

Setting [1] is: crude T18 selection 1 (1:1:1) peptides, single concentration BLI (Table S4).
The mark [2] stands for this setting: crude NNK peptides, single concentration BLI (Table S3).

By Kd is commonly meant the free concentration of one partner at which half of the binding sites on the other are occupied at equilibrium, for simple one-to-one binding.

As to `CC[C@H](C)[C@@H]1NC(=O)[C@H](CC(C)C)NC(=O)[C@H](Cc2ccccc2)NC(=O)[C@H](Cc2ccc(O)cc2)NC(=O)[C@H](CCCCN)NC(=O)[C@H](C)NC(=O)[C@@H](NC(=O)[C@H](CCSC)NC(C)=O)CSSC[C@@H](C(=O)NCC(=O)N[C@@H](CO)C(=O)NCC(=O)N[C@@H](CO)C(=O)N[C@@H](CC(=O)O)C(=O)N[C@@H](Cc2ccc(O)cc2)C(=O)N[C@@H](CCCCN)C(=O)N[C@@H](CC(=O)O)C(=O)N[C@@H](CC(=O)O)C(=O)N[C@@H](CC(=O)O)C(=O)N[C@@H](CC(=O)O)C(=O)N[C@@H](CCCCN)C(N)=O)NC(=O)[C@H](CCC(N)=O)NC(=O)[C@H](CCC(N)=O)NC(=O)[C@H](Cc2ccc(O)cc2)NC(=O)[C@H](C)NC(=O)[C@H](CCCNC(=N)N)NC(=O)[C@H](Cc2c[nH]c3ccccc23)NC1=O` (Ac-MCAKYFLIWRAYQQCGSGSDYKDDDDK-NH2; disulfide 2-15), the Kd on FGF-R3C ECD was > 10 µM; at FGF-R1C ECD it was > 10 µM; at FGF-R4 ECD (setting [1]), 0.01 µM.
For the compound `CSCC[C@H](NC(C)=O)C(=O)N[C@H]1CSSC[C@@H](C(=O)NCC(=O)N[C@@H](CO)C(=O)NCC(=O)N[C@@H](CO)C(=O)N[C@@H](CC(=O)O)C(=O)N[C@@H](Cc2ccc(O)cc2)C(=O)N[C@@H](CCCCN)C(=O)N[C@@H](CC(=O)O)C(=O)N[C@@H](CC(=O)O)C(=O)N[C@@H](CC(=O)O)C(=O)N[C@@H](CC(=O)O)C(=O)N[C@@H](CCCCN)C(N)=O)NC(=O)[C@H](C(C)C)NC(=O)[C@H](CCCNC(=N)N)NC(=O)[C@H](CCSC)NC(=O)[C@H](C(C)C)NC(=O)[C@H](CCCCN)NC(=O)[C@H](Cc2ccc(O)cc2)NC(=O)[C@H](CC(C)C)NC(=O)[C@H](CC(C)C)NC(=O)[C@H](C(C)C)NC(=O)CNC1=O` (Ac-MCGVLLYKVMRVCGSGSDYKDDDDK-NH2; disulfide 2-13), the Kd is > 10 µM on FGF-R3C ECD, > 10 µM on FGF-R1C ECD and 0.124 µM on FGF-R4 ECD (setting [2]).
Turning to `CC[C@H](C)[C@@H]1NC(=O)[C@H](Cc2ccc(O)cc2)NC(=O)[C@H](C)NC(=O)[C@H](CC(C)C)NC(=O)[C@H](Cc2c[nH]c3ccccc23)NC(=O)[C@@H](NC(=O)[C@H](CCCCN)NC(=O)[C@@H](NC(=O)[C@H](CCSC)NC(=O)[C@H](CCSC)NC(C)=O)C(C)C)CSSC[C@@H](C(=O)NCC(=O)N[C@@H](CO)C(=O)NCC(=O)N[C@@H](CO)C(=O)N[C@@H](CC(=O)O)C(=O)N[C@@H](Cc2ccc(O)cc2)C(=O)N[C@@H](CCCCN)C(=O)N[C@@H](CC(=O)O)C(=O)N[C@@H](CC(=O)O)C(=O)N[C@@H](CC(=O)O)C(=O)N[C@@H](CC(=O)O)C(=O)N[C@@H](CCCCN)C(N)=O)NC(=O)[C@H]([C@@H](C)O)NC(=O)[C@H](CCCNC(=N)N)NC1=O` (Ac-MMVKCWLAYIRTCGSGSDYKDDDDK-NH2; disulfide 5-13), the Kd on FGF-R3C ECD, at FGF-R1C ECD and on FGF-R4 ECD (setting [2]) was > 10 µM in each case.
Turning to `CC[C@H](C)[C@@H]1NC(=O)[C@H](Cc2ccc(O)cc2)NC(=O)[C@H](Cc2ccc(O)cc2)NC(=O)[C@H](Cc2ccccc2)NC(=O)[C@H](CC(C)C)NC(=O)[C@H](CC(=O)O)NC(=O)[C@H](CCC(=O)O)NC(=O)[C@@H](NC(=O)[C@H](CCSC)NC(C)=O)CSSC[C@@H](C(=O)NCC(=O)N[C@@H](CO)C(=O)NCC(=O)N[C@@H](CO)C(=O)N[C@@H](CC(=O)O)C(=O)N[C@@H](Cc2ccc(O)cc2)C(=O)N[C@@H](CCCCN)C(=O)N[C@@H](CC(=O)O)C(=O)N[C@@H](CC(=O)O)C(=O)N[C@@H](CC(=O)O)C(=O)N[C@@H](CC(=O)O)C(=O)N[C@@H](CCCCN)C(N)=O)NC(=O)CNC(=O)[C@H](Cc2ccc(O)cc2)NC(=O)[C@H](CCCNC(=N)N)NC(=O)[C@H](CC(N)=O)NC(=O)[C@H]([C@@H](C)CC)NC1=O` (Ac-MCEDLFYYIINRYGCGSGSDYKDDDDK-NH2; disulfide 2-15), the equilibrium dissociation constant (Kd) is > 10 µM at FGF-R3C ECD, > 10 µM on FGF-R1C ECD and 0.018 µM on FGF-R4 ECD (setting [1]).
As for `CSCC[C@H](NC(C)=O)C(=O)N[C@H]1CSSC[C@@H](C(=O)NCC(=O)N[C@@H](CO)C(=O)NCC(=O)N[C@@H](CO)C(=O)N[C@@H](CC(=O)O)C(=O)N[C@@H](Cc2ccc(O)cc2)C(=O)N[C@@H](CCCCN)C(=O)N[C@@H](CC(=O)O)C(=O)N[C@@H](CC(=O)O)C(=O)N[C@@H](CC(=O)O)C(=O)N[C@@H](CC(=O)O)C(=O)N[C@@H](CCCCN)C(N)=O)NC(=O)[C@H](Cc2ccc(O)cc2)NC(=O)[C@H](C(C)C)NC(=O)[C@H](Cc2ccc(O)cc2)NC(=O)[C@H](Cc2c[nH]c3ccccc23)NC(=O)[C@H](CO)NC(=O)[C@H](CCCCN)NC(=O)[C@H](Cc2c[nH]cn2)NC(=O)[C@H](Cc2ccc(O)cc2)NC(=O)[C@H](Cc2ccc(O)cc2)NC(=O)[C@H](Cc2ccccc2)NC(=O)[C@H](Cc2c[nH]c3ccccc23)NC(=O)[C@H](CCC(=O)O)NC1=O` (Ac-MCEWFYYHKSWYVYCGSGSDYKDDDDK-NH2; disulfide 2-15), the Kd was > 10 µM at FGF-R3C ECD, 0.191 µM at FGF-R1C ECD and > 10 µM on FGF-R4 ECD (setting [1]).
Turning to `CC[C@H](C)[C@@H]1NC(=O)[C@H](CC(N)=O)NC(=O)[C@@H](NC(=O)[C@H](CCSC)NC(C)=O)CSSC[C@@H](C(=O)NCC(=O)N[C@@H](CO)C(=O)NCC(=O)N[C@@H](CO)C(=O)N[C@@H](CC(=O)O)C(=O)N[C@@H](Cc2ccc(O)cc2)C(=O)N[C@@H](CCCCN)C(=O)N[C@@H](CC(=O)O)C(=O)N[C@@H](CC(=O)O)C(=O)N[C@@H](CC(=O)O)C(=O)N[C@@H](CC(=O)O)C(=O)N[C@@H](CCCCN)C(N)=O)NC(=O)[C@H](C(C)C)NC(=O)[C@H](CO)NC(=O)[C@H](CC(C)C)NC(=O)[C@H]([C@@H](C)CC)NC(=O)[C@H](CCCCN)NC(=O)[C@H](Cc2ccc(O)cc2)NC(=O)[C@H](CC(C)C)NC(=O)[C@H](CC(C)C)NC1=O` (Ac-MCNILLYKILSVCGSGSDYKDDDDK-NH2; disulfide 2-13), the Kd at FGF-R3C ECD is > 10 µM; on FGF-R1C ECD, > 10 µM; at FGF-R4 ECD (setting [2]), 0.105 µM.
In the case of `CSCC[C@H](NC(C)=O)C(=O)N[C@H]1CSSC[C@@H](C(=O)NCC(=O)N[C@@H](CO)C(=O)NCC(=O)N[C@@H](CO)C(=O)N[C@@H](CC(=O)O)C(=O)N[C@@H](Cc2ccc(O)cc2)C(=O)N[C@@H](CCCCN)C(=O)N[C@@H](CC(=O)O)C(=O)N[C@@H](CC(=O)O)C(=O)N[C@@H](CC(=O)O)C(=O)N[C@@H](CC(=O)O)C(=O)N[C@@H](CCCCN)C(N)=O)NC(=O)[C@H](Cc2ccc(O)cc2)NC(=O)[C@H](Cc2c[nH]c3ccccc23)NC(=O)[C@H](CC(N)=O)NC(=O)[C@H](CCCNC(=N)N)NC(=O)[C@H](CC(=O)O)NC(=O)[C@H](CC(C)C)NC(=O)[C@H](CCCNC(=N)N)NC(=O)[C@H](Cc2ccc(O)cc2)NC(=O)[C@H](CCCCN)NC(=O)[C@H](Cc2c[nH]c3ccccc23)NC(=O)[C@H](C(C)C)NC1=O` (Ac-MCVWKYRLDRNWYCGSGSDYKDDDDK-NH2; disulfide 2-14), the Kd at FGF-R3C ECD is > 10 µM; on FGF-R1C ECD, 0.078 µM; on FGF-R4 ECD (setting [1]), 2.04 µM.
